Experimental data published in patent publication US20220133740A1, “VALPROIC ACID COMPOUNDS AND WNT AGONISTS FOR TREATING EAR DISORDERS” (Frequency Therapeutics, Inc., priority 2019, published 2022).
“Also recorded” adds a separate entry of the source. Like-named read-outs stand apart in the source and are kept apart here.

Key:
GSK3-alpha [1] = molecular target: T1, GSK3-alpha (Homo sapiens, UniProt P49840); conditions: cited from earlier work; for GSK-3 alpha: Table 5
GSK3-beta = GSK3-beta (Homo sapiens, UniProt P49841); conditions: cited from earlier work
Sequence of GSK3-beta (P49841 whole entry): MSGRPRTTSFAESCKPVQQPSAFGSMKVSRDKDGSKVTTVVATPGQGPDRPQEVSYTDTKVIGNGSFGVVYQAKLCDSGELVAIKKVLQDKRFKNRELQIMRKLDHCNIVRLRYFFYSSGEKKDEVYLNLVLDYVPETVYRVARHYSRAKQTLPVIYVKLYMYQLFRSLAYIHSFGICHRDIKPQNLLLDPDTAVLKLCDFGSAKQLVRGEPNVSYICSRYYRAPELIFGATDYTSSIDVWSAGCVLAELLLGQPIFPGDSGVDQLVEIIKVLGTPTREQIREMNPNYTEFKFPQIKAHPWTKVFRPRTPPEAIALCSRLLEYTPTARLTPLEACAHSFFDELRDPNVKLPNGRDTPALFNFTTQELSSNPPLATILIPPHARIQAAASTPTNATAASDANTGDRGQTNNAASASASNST

[2] = Perilymph valproic acid along the cochlea (sequential apical sampling) after systemic sodium valproate; type: in vivo; conditions: guinea pig, perilymph at 3 hours, therapeutic level as determined in vitro on primary cochlear Lgr5 cells
[3] = Blood/plasma valproic acid levels after intravenous sodium valproate; type: in vivo; conditions: guinea pig, i.v. 100 mg/mL sodium valproate at 20 μL/min for 60 minutes (120 mg, about 330 mg/kg); FIG. 2A
Lgr5+ cells = test: Lgr5+ Assay; type: cell-based; conditions: Table 5
[4] = Perilymph valproic acid after systemic plus local administration versus local-only administration; type: in vivo; conditions: guinea pig, i.v. 25 mg/mL sodium valproate plus 20 μL poloxamer formulation (sodium valproate 88.63 mg/mL, CHIR99021 3.14 mg/mL) at round window niche, perilymph at 3 hours; FIG. 4
GSK3-alpha [5] = molecular target: T1, GSK3-alpha; test: GSK3-alpha inhibitor potency (Tables 2 and 5); type: biochemical

T1 sequence (P49840 whole entry): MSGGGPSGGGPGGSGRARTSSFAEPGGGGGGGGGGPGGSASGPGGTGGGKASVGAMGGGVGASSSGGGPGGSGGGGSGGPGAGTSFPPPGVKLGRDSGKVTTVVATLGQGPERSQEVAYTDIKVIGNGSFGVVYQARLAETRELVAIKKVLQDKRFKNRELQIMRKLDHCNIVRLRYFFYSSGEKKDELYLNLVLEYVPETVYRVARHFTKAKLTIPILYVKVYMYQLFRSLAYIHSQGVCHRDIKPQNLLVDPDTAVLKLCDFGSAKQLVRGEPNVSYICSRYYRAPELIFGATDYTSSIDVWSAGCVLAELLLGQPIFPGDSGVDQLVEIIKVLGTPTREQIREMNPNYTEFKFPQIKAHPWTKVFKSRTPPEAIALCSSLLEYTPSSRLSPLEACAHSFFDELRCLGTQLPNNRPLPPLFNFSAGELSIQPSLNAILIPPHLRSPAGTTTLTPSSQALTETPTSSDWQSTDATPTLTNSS

Compound | Potency (nM) GSK3-alpha (GSK3-alpha [1]; Table 2) [nM] | Potency (nM) GSK3-beta (GSK3-beta; Table 2) [nM] | also measured
Cc1ccccc1C1C2=C(CC(C)(C)CC2=O)Nc2n[nH]c(C)c21 (stereo not drawn) [Compound 11, 3,7,7-trimethyl-4-(o-tolyl)-2,4,6,7,8,9-hexahydro-5H-pyrazolo[3,4-b]quinolin-5-one] | 32 | 102 | –
(3-aminopyrido[2,3-a]pyrrolo[3,4-c]carbazole-5,7(1H,6H)-dionato-κN^1,κN^12)carbonylchloro(2-pyridinemethanamine-κN^1,κN^2)-, (OC-6-24-A)-Ruthenium [lambda-OS1] | 0.9 | 6 | –
carbonyl(η^5-2,4-cyclopentadien-1-yl)(9-hydroxypyrido[2,3-a]pyrrolo[3,4-c]carbazole-5,7(1H,6H)-dionato-κN^1,κN^12)-Ruthenium [(R)-DW12] | 0.5 | 1 | –
O=C(O)COc1ccc(Nc2ncc3nnn(-c4ccccc4)c3n2)cc1 [Compound 92, 2-(4-((3-phenyl-3H-[1,2,3]triazolo[4,5-d]pyrimidin-5-yl)amino)phenoxy)acetic acid] | 9 | 13 | –
O=C1NC(=O)[C@@H](c2cn3c4c(cccc24)CCC3)[C@@H]1c1c[nH]c2ccccc12 [Tivantinib, (3R,4R)-3-(5,6-dihydro-4H-pyrrolo[3,2,1-ij]quinolin-1-yl)-4-(1H-indol-3-yl)pyrrolidine-2,5-dione] | 659 | 1865 | –
CCCC(CCC)C(=O)[O-].[Na+] [Sodium Valproate, sodium 2-propylpentanoate] | – | – | distribution and level of valproate in cochlear perilymph ([2]; i.v. 25 mg/mL sodium valproate at 20 μL/min for 60 min (about 26 mg valproate)): did not achieve therapeutic levels; distribution and level of valproate in cochlear perilymph (apex to base, serial samples 1-4) ([2]; i.v. 100 mg/mL sodium valproate at 20 μL/min for 60 min): Uniform distribution of valproate was observed throughout the cochlea at 3 hours; also recorded: uniform distribution and therapeutic levels; time at which plasma levels peaked [3]: ≤ 1 h
Cc1cnc(-c2cnc(NCCNc3ccc(C#N)cn3)nc2-c2ccc(Cl)cc2Cl)[nH]1 [CHIR99021, 6-[[2-[[4-(2,4-dichlorophenyl)-5-(5-methyl-1H-imidazol-2-yl)-2-pyrimidinyl]amino]ethyl]amino]-3-pyridinecarbonitrile] | – | – | Lgr5 + Assay (Lgr5+ cells): 2 to 6 µM
c1ccc(Nc2ncc3nnn(-c4ccccc4)c3n2)cc1 [Compound 90, N,3-diphenyl-3H-[1,2,3]triazolo[4,5-d]pyrimidin-5-amine] | 330 | 628 | –
N#Cc1ccc2c(c1)/C(=C1\C=CC(CN3CCOCC3)=CN1)C(=O)N2 [AZD1080, (Z)-3-(5-(morpholinomethyl)pyridin-2(1H)-ylidene)-2-oxoindoline-5-carbonitrile] | 6.9 | – | GSK-3 alpha (GSK3-alpha [1]): 6.9 nM; Lgr5 + Assay (Lgr5+ cells): 1 to 5 µM
CCCC(CCC)C(=O)O [Valproic Acid, 2-propyl pentanoic acid] | – | – | perilymph valproic acid distribution and retention, systemic plus local versus local-only administration [4]: improved the drug distribution and retention in guinea pig cochlea
COc1ccccc1[C@@H]1C2=C(CC(C)(C)CC2=O)N=C2NNC(C(F)(F)F)=C21 [BRD1172, (R)-4-(2-methoxyphenyl)-7,7-dimethyl-3-(trifluoromethyl)-1,2,4,6,7,8-hexahydro-5H-pyrazolo[3,4-b]quinolin-5-one] | – | – | Potency (nM) GSK3-alpha (GSK3-alpha [1]): 3 nM; Potency (nM) GSK3-beta (GSK3-beta): 10 nM; Ratio of alpha to beta (GSK3-alpha [5]): 3.3
Cc1ccc(C(=O)Nc2c[nH]nc2C(=O)NCCCOC(C)C)cn1 [GSK-3 Inhibitor XXII, 6-methyl-N-[3-[[3-(1-methylethoxy)propyl]carbamoyl]-1H-pyrazol-4-yl]pyridine-3-carboxamide] | 2.3 | – | GSK-3 alpha (GSK3-alpha [1]): 2.3 nM; Lgr5 + Assay (Lgr5+ cells): 0.2 to 1 µM
CO[C@H]1CC[C@H](NC(=O)c2n[nH]cc2NC(=O)c2ncoc2-c2ccccc2)CC1 [Compound 4z, N-(3-(((1r,4r)-4-methoxycyclohexyl)carbamoyl)-1H-pyrazol-4-yl)-5-phenyloxazole-4-carboxamide] | – | 5 | –
CC1(C)CC(=O)C2=C(C1)Nc1n[nH]c(C(F)(F)F)c1[C@]2(C)c1ccccc1 [BRD1652, N-4,7,7-trimethyl-4-phenyl-3-(trifluoromethyl)-2,4,6,7,8,9-hexahydro-5H-pyrazolo[3,4-b]quinolin-5-one] | 0.4 | 4 | –
O=C1NC(=O)C(c2cnc3ccccn23)=C1c1cn2c3c(cc(F)cc13)CN(C(=O)N1CCCCC1)CC2 [LY2090314, 3-(9-fluoro-2-(piperidine-1-carbonyl)-1,2,3,4-tetrahydro-[1,4]diazepino[6,7,1-hi]indol-7-yl)-4-(imidazo[1,2-a]pyridin-3-yl)-1H-pyrrole-2,5-dione] | – | – | GSK-3 alpha (GSK3-alpha [1]): 2.1 nM; GSK3-beta potency (GSK3-beta; Table 5): 0.9 nM; Lgr5 + Assay (Lgr5+ cells): 0.005 to 0.02 µM
Cn1cc(C2=C(c3cccc(N)c3)C(=O)NC2=O)c2ccccc21 [Compound 3, 3-(3-aminophenyl)-4-(1-methyl-1H-indol-3-yl)-1H-pyrrole-2,5-dione] | 3 | 10 | –
Cc1[nH]nc2c1C(c1cccc(F)c1)C1=C(CC(C)(C)CC1=O)N2 (stereo not drawn) [Compound 9, 4-(3-fluorophenyl)-3,7,7-trimethyl-2,4,6,7,8,9-hexahydro-5H-pyrazolo[3,4-b]quinolin-5-one] | 62 | 156 | –
COc1ccc(-c2cnc3[nH]cc(/C=C/C(=O)NCc4ccncc4)cc2-3)cc1 [Compound 27, (E)-3-(3-(4-methoxyphenyl)-7H-pyrrolo[2,3-b]pyridin-5-yl)-N-(pyridin-4-ylmethyl)acrylamide] | 42 | 140 | –
CO[C@H]1CC[C@H](NC(=O)c2n[nH]cc2NC(=O)c2ccc(N3CCN(C)CC3)cc2)CC1 [Compound 4t, N-((1r,4r)-4-methoxycyclohexyl)-4-(4-(4-methylpiperazin-1-yl)benzamido)-1H-pyrazole-3-carboxamide] | – | <5 | –
Cc1[nH]nc2c1[C@](C)(c1ccccc1)C1=C(CC(C)(C)CC1=O)N2 [Compound 16, (S)-3,4,7,7-tetramethyl-4-phenyl-2,4,6,7,8,9-hexahydro-5H-pyrazolo[3,4-b]quinolin-5-one] | 8 | 26 | –
CO[C@H]1CC[C@H](NC(=O)c2n[nH]cc2NC(=O)C2CCC(F)(F)CC2)CC1 [Compound 4a, 4-(4,4-difluorocyclohexane-1-carboxamido)-N-((1r,4r)-4-metboxycyclohexyl)-1H-pyrazole-3-carboxamide] | – | 8 | –
